Data from the NIST ThermoML archive (doi:10.1016/j.jct.2007.04.005).

Assay: xn = mol fraction of the nth substance listed
Details: 298.15 K, Liquid

CCCCCCCCC [nonane] + C1CCCCC1
Details | mass density [kg/m3]
100 kPa, x2 = 0 | 713.6
100 kPa, x2 = 0.09303 | 716.6
100 kPa, x2 = 0.2009 | 720.5
100 kPa, x2 = 0.3051 | 724.8
100 kPa, x2 = 0.417 | 729.9
100 kPa, x2 = 0.512 | 734.6
100 kPa, x2 = 0.5996 | 739.8
100 kPa, x2 = 0.7052 | 746.6
100 kPa, x2 = 0.7993 | 753.9
100 kPa, x2 = 0.9039 | 763.1
101 kPa, x2 = 0 | 713.86
101 kPa, x2 = 0.1022 | 717.19
101 kPa, x2 = 0.1548 | 719.05
101 kPa, x2 = 0.2009 | 720.75
101 kPa, x2 = 0.2591 | 723.01
101 kPa, x2 = 0.3306 | 726.01
101 kPa, x2 = 0.4003 | 729.17
101 kPa, x2 = 0.4596 | 732.07
101 kPa, x2 = 0.5321 | 735.92
101 kPa, x2 = 0.612 | 740.61
101 kPa, x2 = 0.6649 | 744.01
101 kPa, x2 = 0.7224 | 748.02
101 kPa, x2 = 0.8047 | 754.4
101 kPa, x2 = 0.8686 | 759.98
101 kPa, x2 = 0.9405 | 767.1
2130 kPa, x2 = 0 | 715.2
2130 kPa, x2 = 0.09303 | 718.2
2130 kPa, x2 = 0.2009 | 722.2
2130 kPa, x2 = 0.3051 | 726.5
2130 kPa, x2 = 0.417 | 731.5
2130 kPa, x2 = 0.512 | 736.2
2130 kPa, x2 = 0.5996 | 741.4
2130 kPa, x2 = 0.7052 | 748.2
2130 kPa, x2 = 0.7993 | 755.6
2130 kPa, x2 = 0.9039 | 764.8
4150 kPa, x2 = 0 | 716.8
4150 kPa, x2 = 0.09303 | 719.8
4150 kPa, x2 = 0.2009 | 723.8
4150 kPa, x2 = 0.3051 | 728.1
4150 kPa, x2 = 0.417 | 733.1
4150 kPa, x2 = 0.512 | 737.8
4150 kPa, x2 = 0.5996 | 743.1
4150 kPa, x2 = 0.7052 | 749.9
4150 kPa, x2 = 0.7993 | 757.2
4150 kPa, x2 = 0.9039 | 766.5
6180 kPa, x2 = 0 | 718.4
6180 kPa, x2 = 0.09303 | 721.4
6180 kPa, x2 = 0.2009 | 725.4
6180 kPa, x2 = 0.3051 | 729.7
6180 kPa, x2 = 0.417 | 734.7
6180 kPa, x2 = 0.512 | 739.5
6180 kPa, x2 = 0.5996 | 744.7
6180 kPa, x2 = 0.7052 | 751.5
6180 kPa, x2 = 0.7993 | 758.8
6180 kPa, x2 = 0.9039 | 768.1
8210 kPa, x2 = 0 | 719.9
8210 kPa, x2 = 0.09303 | 722.9
8210 kPa, x2 = 0.2009 | 726.9
8210 kPa, x2 = 0.3051 | 731.2
8210 kPa, x2 = 0.417 | 736.3
8210 kPa, x2 = 0.512 | 741
8210 kPa, x2 = 0.5996 | 746.3
8210 kPa, x2 = 0.7052 | 753.1
8210 kPa, x2 = 0.7993 | 760.4
8210 kPa, x2 = 0.9039 | 769.7
10230 kPa, x2 = 0 | 721.4
10230 kPa, x2 = 0.09303 | 724.4
10230 kPa, x2 = 0.2009 | 728.5
10230 kPa, x2 = 0.3051 | 732.8
10230 kPa, x2 = 0.417 | 737.9
10230 kPa, x2 = 0.512 | 742.5
10230 kPa, x2 = 0.5996 | 747.9
10230 kPa, x2 = 0.7052 | 754.7
10230 kPa, x2 = 0.7993 | 762
10230 kPa, x2 = 0.9039 | 771.3
11250 kPa, x2 = 0 | 722.2
11250 kPa, x2 = 0.09303 | 725.2
11250 kPa, x2 = 0.2009 | 729.2
11250 kPa, x2 = 0.3051 | 733.5
11250 kPa, x2 = 0.417 | 738.6
11250 kPa, x2 = 0.512 | 743.3
11250 kPa, x2 = 0.5996 | 748.6
11250 kPa, x2 = 0.7052 | 755.5
11250 kPa, x2 = 0.7993 | 762.8
11250 kPa, x2 = 0.9039 | 772.1
12260 kPa, x2 = 0 | 722.9
12260 kPa, x2 = 0.09303 | 725.9
12260 kPa, x2 = 0.2009 | 730
12260 kPa, x2 = 0.3051 | 734.3
12260 kPa, x2 = 0.417 | 739.4
12260 kPa, x2 = 0.512 | 744.1
12260 kPa, x2 = 0.5996 | 749.4
12260 kPa, x2 = 0.7052 | 756.2
12260 kPa, x2 = 0.7993 | 763.5
12260 kPa, x2 = 0.9039 | 772.9
14290 kPa, x2 = 0 | 724.4
14290 kPa, x2 = 0.09303 | 727.4
14290 kPa, x2 = 0.2009 | 731.5
14290 kPa, x2 = 0.3051 | 735.8
14290 kPa, x2 = 0.417 | 740.9
14290 kPa, x2 = 0.512 | 745.5
14290 kPa, x2 = 0.5996 | 750.9
14290 kPa, x2 = 0.7052 | 757.8
14290 kPa, x2 = 0.7993 | 765.1
14290 kPa, x2 = 0.9039 | 774.4
16310 kPa, x2 = 0 | 725.8
16310 kPa, x2 = 0.09303 | 728.8
16310 kPa, x2 = 0.2009 | 732.9
16310 kPa, x2 = 0.3051 | 737.2
16310 kPa, x2 = 0.417 | 742.3
16310 kPa, x2 = 0.512 | 747
16310 kPa, x2 = 0.5996 | 752.3
16310 kPa, x2 = 0.7052 | 759.2
16310 kPa, x2 = 0.7993 | 766.5
16310 kPa, x2 = 0.9039 | 775.9
18340 kPa, x2 = 0 | 727.2
18340 kPa, x2 = 0.09303 | 730.2
18340 kPa, x2 = 0.2009 | 734.3
18340 kPa, x2 = 0.3051 | 738.6
18340 kPa, x2 = 0.417 | 743.7
18340 kPa, x2 = 0.512 | 748.4
18340 kPa, x2 = 0.5996 | 753.8
